Measurements published in PubChem BioAssay (NCI).
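Growth conditions: 96-well plates. Treatment: test compound, 48 hours, 5 concentrations. Analysis: linear interpolation between bracketing concentrations; unreached endpoints set to highest concentration. The concentration for 50% growth inhibition is given as GI50. TGI denotes the concentration required for complete inhibition of growth.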

How the values were obtained:
Assay in all cases: NCI-60 cell line screen, 48 h
[1] = test system: 786-0 renal
[2] = test system: A498 renal
[3] = test system: A549 NSCLC
[4] = test system: ACHN renal
[5] = test system: BT-549 breast
[6] = test system: CAKI-1 renal
[7] = test system: COLO 205 colon
[8] = test system: DU-145 prostate
[9] = test system: EKVX NSCLC
[10] = test system: HCC-2998 colon
[11] = test system: HCT-116 colon
[12] = test system: HCT-15 colon
[13] = test system: HL-60(TB) leukemia
[14] = test system: HOP-62 NSCLC
[15] = test system: HOP-92 NSCLC
[16] = test system: HS 578T breast
[17] = test system: HT29 colon
[18] = test system: IGROV1 ovarian
[19] = test system: KM12 colon
[20] = test system: LOX IMVI melanoma
[21] = test system: M14 melanoma
[22] = test system: MALME-3M melanoma
[23] = test system: MCF7 breast
[24] = test system: MDA-MB-231 breast
[25] = test system: MDA-MB-435
[26] = test system: MOLT-4 leukemia
[27] = test system: NCI-H226 lung
[28] = test system: NCI-H23 lung
[29] = test system: NCI-H460 lung
[30] = test system: NCI-H522 lung
[31] = test system: NCI/ADR-RES ovarian
[32] = test system: OVCAR-3 ovarian
[33] = test system: OVCAR-4 ovarian
[34] = test system: OVCAR-5 ovarian
[35] = test system: OVCAR-8 ovarian
[36] = test system: PC-3 prostate
[37] = test system: RPMI-8226 leukemia
[38] = test system: RXF 393 renal
[39] = test system: SF-268 CNS
[40] = test system: SF-295 CNS
[41] = test system: SF-539 CNS
[42] = test system: SK-MEL-2 melanoma
[43] = test system: SK-MEL-28 melanoma
[44] = test system: SK-MEL-5 melanoma
[45] = test system: SN12C renal
[46] = test system: SNB-19 CNS
[47] = test system: SNB-75 CNS
[48] = test system: SR leukemia
[49] = test system: SW-620 colon
[50] = test system: TK-10 renal
[51] = test system: U251 CNS
[52] = test system: UACC-257 melanoma
[53] = test system: UACC-62 melanoma
[54] = test system: UO-31 renal

O=c1c2cc(F)ccc2sc2c(N3CCNCC3)nc3ccccc3c12
GI50 [1]: 1450 nM
TGI [1]: 2930 nM
GI50 [2]: 1440 nM
TGI [2]: 2910 nM
GI50 [3]: 1650 nM
TGI [3]: 3540 nM
GI50 [4]: 1560 nM
TGI [4]: 2890 nM
GI50 [5]: 7760 nM
TGI [5]: 20900 nM
GI50 [6]: 1590 nM
TGI [6]: 2930 nM
GI50 [7]: 1750 nM
TGI [7]: 4030 nM
GI50 [8]: 1690 nM
TGI [8]: 3120 nM
GI50 [9]: 1550 nM
TGI [9]: 2980 nM
GI50 [10]: 1650 nM
TGI [10]: 3050 nM
GI50 [11]: 1590 nM
TGI [11]: 3010 nM
GI50 [12]: 1410 nM
TGI [12]: 2850 nM
GI50 [13]: 1900 nM
TGI [13]: 3720 nM
GI50 [14]: 1610 nM
TGI [14]: 3440 nM
GI50 [15]: 867 nM
TGI [15]: 2220 nM
GI50 [16]: 1530 nM
TGI [16]: 3310 nM
GI50 [17]: 1640 nM
TGI [17]: 3350 nM
GI50 [18]: 1500 nM
TGI [18]: 3020 nM
GI50 [19]: 1720 nM
TGI [19]: 3340 nM
GI50 [20]: 1590 nM
TGI [20]: 3020 nM
GI50 [21]: 1780 nM
TGI [21]: 3270 nM
GI50 [22]: 1640 nM
TGI [22]: 3220 nM
GI50 [23]: 1700 nM
TGI [23]: 3270 nM
GI50 [24]: 1390 nM
TGI [24]: 2780 nM
GI50 [25]: 1650 nM
TGI [25]: 3050 nM
GI50 [26]: 1700 nM
TGI [26]: 3560 nM
GI50 [27]: 1820 nM
TGI [27]: 3480 nM
GI50 [28]: 1780 nM
TGI [28]: 3270 nM
GI50 [29]: 1490 nM
TGI [29]: 2990 nM
GI50 [30]: 1860 nM
TGI [30]: 3720 nM
GI50 [31]: 1690 nM
TGI [31]: 3220 nM
GI50 [32]: 1660 nM
TGI [32]: 3090 nM
GI50 [33]: 1740 nM
TGI [33]: 3460 nM
GI50 [34]: 1670 nM
TGI [34]: 3080 nM
GI50 [35]: 1820 nM
TGI [35]: 4080 nM
GI50 [36]: 1610 nM
TGI [36]: 3100 nM
GI50 [37]: 1770 nM
TGI [37]: 3770 nM
GI50 [38]: 1290 nM
TGI [38]: 2650 nM
GI50 [39]: 1550 nM
TGI [39]: 3180 nM
GI50 [40]: 1750 nM
TGI [40]: 3170 nM
GI50 [41]: 1630 nM
TGI [41]: 3050 nM
GI50 [42]: 2010 nM
TGI [42]: 4000 nM
GI50 [43]: 1750 nM
TGI [43]: 3170 nM
GI50 [44]: 1760 nM
TGI [44]: 3180 nM
GI50 [45]: 1590 nM
TGI [45]: 3040 nM
GI50 [46]: 1610 nM
TGI [46]: 3040 nM
GI50 [47]: 1430 nM
TGI [47]: 2800 nM
GI50 [48]: 1540 nM
TGI [48]: 4140 nM
GI50 [49]: 1510 nM
TGI [49]: 3010 nM
GI50 [50]: 1690 nM
TGI [50]: 3240 nM
GI50 [51]: 1570 nM
TGI [51]: 3420 nM
GI50 [52]: 1990 nM
TGI [52]: 3870 nM
GI50 [53]: 1690 nM
TGI [53]: 3090 nM
GI50 [54]: 1370 nM
TGI [54]: 2710 nM
